≈ marks a conversion by molar mass, not a printed value. Each block holds one molecule with its values, some of them ahead of it.
What was measured:
[1] = tested on: HT-29; assay: Antiproliferative activity against human HT-29 cells assessed as reduction in cell viability; format: functional, cell-based
[2] = tested on: A549; assay: Antiproliferative activity against human A549 cells assessed as reduction in cell viability after 72 hrs by MTT assay; format: functional, cell-based; details: A549, 72 h
[3] = tested on: HepG2; assay: Antiproliferative activity against human HepG2 assessed as reduction in cell viability incubated for 48 hrs by AlamarBlue assay; format: functional, cell-based; details: HepG2, 48 h
[4] = tested on: MCF7; assay: Antiproliferative activity against human MCF7 assessed as reduction in cell viability incubated for 48 hrs by AlamarBlue assay; format: functional, cell-based; details: MCF7, 48 h
[5] = tested on: A549; assay: Antiproliferative activity against human A549 cells assessed as reduction in cell viability after 48 hrs by MTT assay; format: functional, cell-based; details: A549, 48 h
[6] = tested on: BGC-823; assay: Antiproliferative activity against human BGC823 cells assessed as reduction in cell viability after 48 hrs by MTT assay; format: functional, cell-based; details: BGC-823, 48 h
[7] = Antiproliferative activity against human KKU100 cells assessed as reduction in cell viability after 72 hrs by SRB assay; format: functional, cell-based; details: KKU100, 72 h
[8] = tested on: HT-29; assay: Antiproliferative activity against human HT-29 cells assessed as reduction in cell viability after 3 days by SRB assay; format: functional, cell-based; details: HT-29, 72 h
[9] = tested on: NCI-H1650; assay: Antiproliferative activity against human NCI-H1650 cells assessed as reduction in cell viability after 72 hrs by CellTiter-Glo assay; format: functional, cell-based; details: NCI-H1650, 72 h
[10] = tested on: HT-3; assay: Antiproliferative activity against human HT3 cells assessed as reduction in cell viability after 6 days by MTT assay; format: functional, cell-based; details: HT-3, 144 h
[11] = target: Cruzipain (Trypanosoma cruzi, UniProt P25779); assay: Inhibition of Trypanosoma cruzi cruzain (unknown origin) using Z-FR-MCA as substrate by spectrofluorimetric method
[12] = target: Trypsin (Homo sapiens, UniProt P07477+P07478+P35030); assay: Inhibition of trypsin (unknown origin) using Z-FR-MCA as substrate by spectrofluorimetric method; format: protein assay
[13] = target: T1, Papain (Carica papaya, UniProt P00784); assay: Inhibition of Papaya papain using Z-FR-MCA as substrate by spectrofluorimetric method
T1 sequence (P00784 whole entry): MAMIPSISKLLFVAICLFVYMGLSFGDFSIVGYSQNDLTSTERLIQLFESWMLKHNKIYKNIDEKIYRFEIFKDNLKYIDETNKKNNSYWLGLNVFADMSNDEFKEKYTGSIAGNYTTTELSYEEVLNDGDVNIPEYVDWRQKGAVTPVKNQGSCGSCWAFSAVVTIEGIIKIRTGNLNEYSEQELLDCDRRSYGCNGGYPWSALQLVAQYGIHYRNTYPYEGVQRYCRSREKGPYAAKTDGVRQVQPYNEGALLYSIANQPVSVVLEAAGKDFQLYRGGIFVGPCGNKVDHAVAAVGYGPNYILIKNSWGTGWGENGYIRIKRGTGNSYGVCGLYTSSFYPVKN

[14] = tested on: P388; assay: Antiproliferative activity against mouse P388 cells assessed as reduction in cell viability; format: functional, cell-based

Chain of Cruzipain (P25779 whole entry): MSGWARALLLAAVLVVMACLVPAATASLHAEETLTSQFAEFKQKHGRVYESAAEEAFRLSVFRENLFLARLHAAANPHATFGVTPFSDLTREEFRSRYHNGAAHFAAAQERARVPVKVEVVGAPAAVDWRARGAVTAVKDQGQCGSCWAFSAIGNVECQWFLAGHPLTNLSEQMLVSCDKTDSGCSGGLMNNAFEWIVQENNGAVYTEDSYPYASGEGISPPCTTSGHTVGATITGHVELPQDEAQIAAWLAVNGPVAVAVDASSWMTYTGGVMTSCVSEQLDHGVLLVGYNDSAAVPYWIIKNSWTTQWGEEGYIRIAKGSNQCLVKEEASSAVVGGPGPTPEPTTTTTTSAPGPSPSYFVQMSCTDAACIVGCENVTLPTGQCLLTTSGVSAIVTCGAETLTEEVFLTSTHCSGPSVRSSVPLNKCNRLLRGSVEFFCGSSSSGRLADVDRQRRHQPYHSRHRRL

IC50 [1]: 1400 nM
SMILES: C=C1C(=O)O[C@@H]2C[C@@H](C)[C@H](OC)CC(=O)[C@](C)(OC(C)=O)C[C@H](OC(=O)/C(C)=C\C)[C@@H]12

IC50 [2]: 10 nM
SMILES: COC[C@H]1O[C@@H](Oc2c3c(c(-c4ccc5c(c4)OCO5)c4cc(OC)c(OC)cc24)C(=O)OC3)[C@H](OC)[C@@H](OC)[C@H]1OC

IC50 [3]: 240 nM
IC50 [4]: 5200 nM
SMILES: C/C1=C\CC[C@@]2(C)O[C@H]2[C@H]2OC(=O)[C@@H](CNc3ccn(C4OC(CO)[C@H](O)[C@@H]4O)c(=O)n3)[C@@H]2CC1 (stereo not given in full)

IC50 [5]: 560 nM
IC50 [6]: 2200 nM
SMILES: COCOc1cc2c(c(O)c1Br)C(=O)C1=CC3CC4C(C)(C)OC(C/C=C(\C)CO)(C3=O)C14O2 (stereo not given)

SMILES: C/C1=C\CC[C@@]2(C)O[C@H]2[C@H]2OC(=O)[C@@H](CNC(Cc3ccc(N(CCCl)CCCl)cc3)C(=O)O)[C@@H]2CC1 (stereo not given in full)
IC50 [3]: 260 nM
IC50 [4]: 1800 nM

SMILES: CC(C)=CCc1c2c(c(O)c3c1O[C@]14C(=C[C@H]5C[C@@H]1C(C)(C)O[C@@]4(C/C=C(\C)C=O)C5=O)C3=O)C=CC(C)(C)O2
IC50 [7]: 3300 nM

SMILES: CO[C@H]1[C@H]2C(=O)c3c(O)c4c(c(CC=C(C)C)c3O[C@@]23[C@@H]2C[C@H]1C(=O)[C@]3(C/C=C(/C)C(=O)O)OC2(C)C)OC(C)(C)C=C4
IC50 [8]: 1900 nM

IC50 [1]: 560 nM
SMILES: C=C1C(=O)O[C@@H]2C[C@@H](C)C3=CC(=O)[C@@](C)(C[C@H](OC(=O)/C(C)=C\C)[C@@H]12)O3

IC50 [1]: 6600 nM
SMILES: C=C1C(=O)O[C@@H]2[C@@H](O)[C@@H](C)C3=CC(=O)[C@@](C)(C[C@H](OC(=O)/C(C)=C\C)[C@@H]12)O3

IC50 [5]: 1700 nM
IC50 [6]: 860 nM
SMILES: COCOc1cc(O)c2c(c1)OC13C(=CC4CC1C(C)(C)OC3(C[C@H](O)C(C)(C)O)C4=O)C2=O (stereo not given in full)

IC50 [2]: 50 nM
SMILES: COC[C@H]1O[C@@H](Oc2c3c(c(-c4ccc5c(c4)OCO5)c4cc(OC)c(OC)cc24)C(=O)OC3)[C@H](OC)[C@@H](OC)[C@@H]1OC

IC50 [1]: 1900 nM
SMILES: C=C(C)C(=O)O[C@H]1C[C@@]2(C)OC(=CC2=O)[C@H](C)[C@H](O)[C@H]2OC(=O)C(=C)[C@@H]21

IC50 [9]: 1400 nM
SMILES: CC(C)=CCC/C(C)=C/Cc1c(O)c(CC=C(C)C)c2c(c1O)C(=O)C1=C[C@@H]3C[C@H]4C(C)(C)O[C@@](C/C=C(\C)C(=O)O)(C3=O)[C@@]14O2

IC50 [1]: 1000 nM
SMILES: C=C1C(=O)O[C@@H]2C[C@@H](C)[C@H](OC)CC(=O)[C@](C)(O)C[C@H](OC(=O)/C(C)=C\C)[C@@H]12

IC50 [8]: 19 nM
SMILES: COc1cc2c(O[C@@H]3OC[C@H](O)[C@H](O)[C@H]3OC)c3c(c(-c4ccc5c(c4)OCO5)c2cc1OC)C(=O)OC3

SMILES: COc1ccc(-c2c3c(c(O)c4cc5c(cc24)OCO5)COC3=O)cc1OC
IC50 [10]: > 10000 ng/mL

IC50 [11]: 235000 nM
IC50 [12]: 1600 nM
IC50 [13]: 15400 nM
SMILES: COc1ccc(C2Oc3cc(OC)cc(O)c3C(=O)C2c2c(OC)cc(O)c3c(=O)cc(-c4ccc(OC)c(OC)c4)oc23)cc1 (racemic)

IC50 [11]: 8100 nM
IC50 [12]: 19800 nM
IC50 [13]: 15700 nM
SMILES: CCCC(=O)Oc1ccc(C2Oc3cc(OC(=O)CCC)cc(O)c3C(=O)C2c2c(OC(=O)CCC)cc(O)c3c(=O)cc(-c4ccc(OC(=O)CCC)c(OC(=O)CCC)c4)oc23)cc1 (racemic)

IC50 [11]: 537000 nM
IC50 [12]: 21100 nM
IC50 [13]: 600 nM
SMILES: CC(=O)Oc1ccc(C2Oc3cc(OC(C)=O)cc(O)c3C(=O)C2c2c(OC(C)=O)cc(O)c3c(=O)cc(-c4ccc(OC(C)=O)c(OC(C)=O)c4)oc23)cc1 (racemic)

IC50 [11]: 9600 nM
IC50 [12]: 3800 nM
IC50 [13]: 10500 nM
SMILES: O=C1c2c(O)cc(O)cc2OC(c2ccc(O)cc2)C1c1c(O)cc(O)c2c(=O)cc(-c3ccc(O)c(O)c3)oc12 (racemic)

IC50 [8]: 2900 nM
SMILES: CC(C)=CCc1c2c(c(O)c3c1O[C@]14C(=C[C@H]5C[C@@H]1C(C)(C)O[C@@]4(C/C=C(/C)C(=O)O)C5=O)C3=O)CC(O)C(C)(C)O2 (single isomer, unassigned; (-))

IC50 [14]: 140 nM
SMILES: CC(C)=CCc1c(-c2cc(O)c(O)cc2O)oc2c3c(cc(O)c2c1=O)OC(C)(C)C=C3 [ARTONIN E]

SMILES: COc1cc2c(OC)c3c(c(-c4ccc5c(c4)OCO5)c2cc1OC)C(=O)OC3 [JUSTICIDIN A]
IC50 [10]: 1.8 ng/mL (≈ 4.56 nM)
